Patent publication US20230355597A1, “COMPOUNDS, COMPOSITIONS, AND METHODS FOR THE TREATMENT AND PREVENTION OF AVIAN PATHOGENIC E. COLI (APEC)” (OHIO STATE INNOVATION FOUNDATION, priority 2018, published 2023)
Converted amounts (≈) assume the structure as drawn. Marks after values point to notes of the source that are not given here.

Columns and labels:
[1] = test system: intracellular APEC O78 in THP-1 cells; experiment: Intracellular survival assay (cidal SMs); conditions: O78, THP-1, 6 h treatment; superscript = multiple of MIC
[2] = test system: intracellular APEC O78 in Caco-2 cells; experiment: Intracellular survival assay (cidal SMs); conditions: O78, Caco-2, 6 h treatment; superscript = multiple of MIC
APEC O78 [3] = experiment: Confocal microscopy bacterial cytological profiling; type: cell-based, avian pathogenic Escherichia coli (APEC); conditions: 2X MBC
Description: Confocal and scanning electron microscopy. Confocal microscopy was used for bacterial cytological profiling (BCP) to identify the cellular pathways targeted by SMs as described previously. […] After incubation, treated cultures were centrifuged, washed, and resuspended in 100 μL PBS. […] Cultures were then centrifuged, washed, and resuspended in PBS to 1⁄10th volume of the original cultures.

[4] = test system: biofilm embedded APEC O78; experiment: MBEC High-throughput assay; type: cell-based, avian pathogenic Escherichia coli (APEC); conditions: biofilm embedded APEC O78; superscript = multiple of MIC (footnote)
Description: Effect against biofilm embedded APEC. The effect of cidal SMs against biofilm embedded APEC was determined using MBEC High-throughput (HTP) assay (Innovotech Inc., AB, Canada). Briefly, 150 µL of 0.05 OD600 adjusted APEC O78 culture was aliquoted into each well of the MBEC device containing polystyrene pegs and incubated at 37° C. for 36 h in LB media under stationary condition. […] The plate was incubated in the dark for 18 h at 37° C. with rotation at 110 rpm. The DMSO (1%) and M63 media were used as positive and negative controls, respectively. Following incubation, MIC of SMs in challenged plate was recorded. The SMs exposed pegs were then transferred to a new 96-well plate containing PBS and sonicated for 30 mins (Aquasonic ultrasonic cleaner, VWR) to disrupt the biofilm. […] Biofilm embedded APEC bacteria were enumerated and minimum biofilm eradication concentration (MBEC) of […] were determined. Two independent experiments were conducted.

APEC O78 [5] = type: cell-based, avian pathogenic Escherichia coli (APEC)
APEC O15 = type: cell-based, avian pathogenic Escherichia coli (APEC); conditions: APEC O15, M63 media; MIC/MBC
[6] = test system: intracellular APEC O78 in HD11 cells; experiment: Intracellular survival assay (cidal SMs); conditions: O78, HD11, 6 h treatment; superscript = multiple of MIC
APEC O2 = type: cell-based, avian pathogenic Escherichia coli (APEC); conditions: APEC O2, M63 media; MIC/MBC
[7] = test system: intracellular APEC O2 in Caco-2 cells; experiment: Intracellular survival assay (cidal SMs); conditions: O2, Caco-2, 6 h treatment; superscript = multiple of MIC
APEC O78 [8] = experiment: Loss of 260/280 nm absorbing materials assay; type: cell-based, avian pathogenic Escherichia coli (APEC); conditions: 2X MBC, 1 h, *P<0.05 vs DMSO; for Absorbance 260: 260 nm absorbing material in supernatant; for Absorbance 280: 280 nm absorbing material in supernatant
[9] = test system: intracellular APEC O1 in Caco-2 cells; experiment: Intracellular survival assay (cidal SMs); conditions: O1, Caco-2, 6 h treatment; superscript = multiple of MIC
APEC O35 = type: cell-based, avian pathogenic Escherichia coli (APEC); conditions: APEC O35, M63 media; MIC/MBC
[10] = test system: intracellular APEC O1 in HD11 cells; experiment: Intracellular survival assay (cidal SMs); conditions: O1, HD11, 6 h treatment; superscript = multiple of MIC
APEC O8 = type: cell-based, avian pathogenic Escherichia coli (APEC); conditions: APEC O8, M63 media; MIC/MBC
Rif^r APEC O78 [11] = experiment: In vivo efficacy of growth inhibitors in APEC infected broiler chickens
APEC O1-63 = type: cell-based, avian pathogenic Escherichia coli (APEC); conditions: APEC O1-63, M63 media; MIC/MBC
[12] = test system: intracellular APEC O2 in THP-1 cells; experiment: Intracellular survival assay (cidal SMs); conditions: O2, THP-1, 6 h treatment; superscript = multiple of MIC
APEC O78-53 = type: cell-based, avian pathogenic Escherichia coli (APEC); conditions: APEC O78-53, M63 media; MIC/MBC
APEC O115 = type: cell-based, avian pathogenic Escherichia coli (APEC); conditions: APEC O115, M63 media; MIC/MBC
APEC O1 = type: cell-based, avian pathogenic Escherichia coli (APEC); conditions: APEC O1, M63 media; MIC/MBC
APEC O18 = type: cell-based, avian pathogenic Escherichia coli (APEC); conditions: APEC O18, M63 media; MIC/MBC
APEC O2-211 = type: cell-based, avian pathogenic Escherichia coli (APEC); conditions: APEC O2-211, M63 media; MIC/MBC
[13] = test system: intracellular APEC O1 in THP-1 cells; experiment: Intracellular survival assay (cidal SMs); conditions: O1, THP-1, 6 h treatment; superscript = multiple of MIC
[14] = test system: intracellular APEC O2 in HD11 cells; experiment: Intracellular survival assay (cidal SMs); conditions: O2, HD11, 6 h treatment; superscript = multiple of MIC
APEC O109 = type: cell-based, avian pathogenic Escherichia coli (APEC); conditions: APEC O109, M63 media; MIC/MBC
Rif^r APEC O78 [15] = experiment: In vivo screening of quorum sensing inhibitors in APEC infected broiler chickens
[16] = test system: AI-2 activity of APEC O115; experiment: AI-2 bioluminescence indicator assay (V. harveyi BB170); conditions: APEC O115, 100 µM
[17] = test system: AI-2 activity of APEC O15; experiment: as above; conditions: APEC O15, 100 µM
AI-2 activity of APEC O1 = experiment: as above; conditions: APEC O1, 100 µM
AI-2 activity of APEC O2 = experiment: as above; conditions: APEC O2, 100 µM
[18] = test system: AI-2 activity of APEC O109; experiment: as above; conditions: APEC O109, 100 µM
AI-2 activity of APEC O8 = experiment: as above; conditions: APEC O8, 100 µM
Rif^r APEC O78 [19] = experiment: Wax moth (Galleria mellonella) larva infection model (AI-2 inhibitors); conditions: 72 h post treatment
[20] = test system: AI-2 activity of APEC O18; experiment: AI-2 bioluminescence indicator assay (V. harveyi BB170); conditions: APEC O18, 100 µM
[21] = test system: AI-2 activity of APEC O78; experiment: as above; conditions: APEC O78, 100 µM
[22] = test system: AI-2 activity of APEC O35; experiment: as above; conditions: APEC O35, 100 µM

`COc1cc(CNCCc2ccc(C)cc2)ccc1OCC(O)CN1CCCC1` (stereo not drawn) [SM3] was tested, and the “SMs intracellular APEC clearance concentration” value [1] was 100^a µM, the “SMs intracellular APEC clearance concentration” value [2] was 100^a µM and the “cytological profile (confocal, FM4-64 / SYTO-9)” value (APEC O78 [3]) was “membrane pore formers”. The MBEC [4] was 50^b µM, the “MBC relative to MIC” value (APEC O78 [5]; APEC O78) was “identical to MIC” and the MIC (APEC O78 [5]; APEC O78, M63 media, MIC/MBC) was 100 µM (≈ 39.9 µg/mL). For the same compound, the MBC (APEC O78 [5]; APEC O78, M63 media, cell prints MIC/MBC) was 100 µM (≈ 39.9 µg/mL), the MBC (APEC O15) was 100 µM (≈ 39.9 µg/mL) and the MIC (APEC O15) was 100 µM (≈ 39.9 µg/mL). The “SMs intracellular APEC clearance concentration” value [6] was 100^a µM, the MBC (APEC O2) was 200 µM (≈ 79.7 µg/mL) and the MIC (APEC O2) was 100 µM (≈ 39.9 µg/mL). For the same compound, the “SMs intracellular APEC clearance concentration” value [7] was >200 µM, the “Absorbance 260” value (APEC O78 [8]) was 3.77 and the “Absorbance 280” value (APEC O78 [8]) was 2.84*. For the same compound, the “SMs intracellular APEC clearance concentration” value [9] was >200 µM, the MBC (APEC O35) was 200 µM (≈ 79.7 µg/mL) and the MIC (APEC O35) was 100 µM (≈ 39.9 µg/mL). For the same compound, the “SMs intracellular APEC clearance concentration” value [10] was 200^b µM, the MBC (APEC O8) was 100 µM (≈ 39.9 µg/mL) and the MIC (APEC O8) was 100 µM (≈ 39.9 µg/mL). The “reduction of average APEC load in internal organs” value (Rif^r APEC O78 [11]; average of liver, heart, lung and kidney, vs untreated control) was “either exacerbated or did not reduce”, the “reduction of APEC lesions severity (%), Air-sacs (airsacculitis)” value (Rif^r APEC O78 [11]; untreated control = 100%) was -29.4% and the “reduction of APEC lesions severity (%), Heart (pericarditis)” value (Rif^r APEC O78 [11]; untreated control = 100%) was 4%. The “reduction of APEC lesions severity (%), Liver (perihepatitis)” value (Rif^r APEC O78 [11]; untreated control = 100%) was -20%, the “reduction of APEC lesions severity (%), Lung (lung congestion)” value (Rif^r APEC O78 [11]; untreated control = 100%) was 0% and the “reduction of APEC load, Heart” value (Rif^r APEC O78 [11]; vs untreated control) was -2.1 log CFU/g of tissues. The “reduction of APEC load, Kidney” value (Rif^r APEC O78 [11]; vs untreated control) was -1.4 log CFU/g of tissues, the “reduction of APEC load, Liver” value (Rif^r APEC O78 [11]; vs untreated control) was -1.8 log CFU/g of tissues and the “reduction of APEC load, Lung” value (Rif^r APEC O78 [11]; vs untreated control) was -2.0 log CFU/g of tissues. For the same compound, the “Body weight gain (BWG)” value (Rif^r APEC O78 [11]; weight of live chickens before necropsy minus weight before treatment) was 254.58±95.03, the MBC (APEC O1-63) was 200 µM (≈ 79.7 µg/mL) and the MIC (APEC O1-63) was 200 µM (≈ 79.7 µg/mL). The “SMs intracellular APEC clearance concentration” value [12] was 100^a µM, the MBC (APEC O78-53) was 200 µM (≈ 79.7 µg/mL) and the MIC (APEC O78-53) was 100 µM (≈ 39.9 µg/mL). The MBC (APEC O115) was 100 µM (≈ 39.9 µg/mL), the MIC (APEC O115) was 100 µM (≈ 39.9 µg/mL) and the MBC (APEC O1) was 200 µM (≈ 79.7 µg/mL). The MIC (APEC O1) was 100 µM (≈ 39.9 µg/mL), the MBC (APEC O18) was 100 µM (≈ 39.9 µg/mL) and the MIC (APEC O18) was 100 µM (≈ 39.9 µg/mL). For the same compound, the MBC (APEC O2-211) was 100 µM (≈ 39.9 µg/mL), the MIC (APEC O2-211) was 100 µM (≈ 39.9 µg/mL) and the “SMs intracellular APEC clearance concentration” value [13] was 200^b µM. The “SMs intracellular APEC clearance concentration” value [14] was 200^b µM, the MBC (APEC O109) was 200 µM (≈ 79.7 µg/mL) and the MIC (APEC O109) was 100 µM (≈ 39.9 µg/mL).

For `O=C(O)CN(CCN(CC(=O)O)CC(=O)O)CC(=O)O` [EDTA, reference compound], the “Absorbance 260” value (APEC O78 [8]) was 4.00* and the “Absorbance 280” value (APEC O78 [8]) was 2.60.

`O=C(CCN1CCN(c2ccccc2F)CC1)Nc1ccc(Br)cc1` [C7, N-(4-bromophenyl)-3-[4-(2-fluomphenyl)-1-piperazinyl]propanamide] was tested, and the “reduction in chicken mortality” value (Rif^r APEC O78 [15]; DMSO control mortality normalized to 100%) was “did not reduce”, the “Mortality rate (%)” value (Rif^r APEC O78 [15]; oral gavage once a day, day 4 to day 8, DMSO control 66.7%) was 66.7% and the “Reduction in APEC lesions severity, Air-sacs (%)” value (Rif^r APEC O78 [15]; vs DMSO treated control) was 33.3%. For the same compound, the “Reduction in APEC lesions severity, Heart (%)” value (Rif^r APEC O78 [15]; vs DMSO treated control) was 33.3%, the “Reduction in APEC lesions severity, Liver (%)” value (Rif^r APEC O78 [15]; vs DMSO treated control) was 33.3% and the “Reduction in APEC lesions severity, Lung (%)” value (Rif^r APEC O78 [15]; vs DMSO treated control) was 83.3%. For the same compound, the “Inhibition % of AI-2 activity” value [16] was 45%, the “Inhibition % of AI-2 activity” value [17] was 36% and the “Inhibition % of AI-2 activity” value (AI-2 activity of APEC O1) was 47%. The “Inhibition % of AI-2 activity” value (AI-2 activity of APEC O2) was 83%, the “Inhibition % of AI-2 activity” value [18] was 67% and the “Inhibition % of AI-2 activity” value (AI-2 activity of APEC O8) was 2%. For the same compound, the larval death (Rif^r APEC O78 [19]) was “no larval death”, the “Inhibition % of AI-2 activity” value [20] was 48% and the “Inhibition % of AI-2 activity” value [21] was 94%. The “Inhibition % of AI-2 activity” value [22] was 62%.
